Test results as given in patent US20080119558A1, “Drug for Inhibiting Production of Matrix Metalloprotease-9” (Japan Science And Technology Agency, priority 2002, published 2008).

Experiments:
MMP-9 = experiment: Detection of MMP-2 and MMP-9 by gelatin zymography in conditioned media of cultured human foreskin keratinocytes; assay type: cell-based; settings: HFKs; for concentration of LMB in the medium at which the production of MMP-9 is inhibited: 24 hours
Method: A foreskin of a neonate was treated at 4° C. for 16 hours by a disperse having a casein decomposition activity of 25.0 caseinolytic units/ml. Epidermal was peeled from dermis using a forceps, then, the epidermal was treated with 0.05% trypsin for 5 minutes. The separated human foreskin keratinocytes (HFKs) were allowed to incubate at 37° C. in a plate having a keratinocyte-SFM medium (manufactured by Invitrogen), and sub-cultured over three generations. Then, into four plates obtained by sub-culturing human foreskin keratinocytes (HFKs) over three generations, LMB was added so that the concentrations in the medium were 0 nM, 0.4 nM, 2 nM and 10 nM, respectively, further, allowed to incubate at 37° C. for 24 hours. Then, four conditioned media of the keratinocyte-SFM medium were collected from the four plates, and stored at −30° C. until use in the following detection of MMP-2 and MMP-9 by a gelatin zymography method.
Prior to detection of MMP-2 and MMP-9 by a gelatin zymography method, four conditioned media collected in <Culturing of human epidermal keratinocyte cell> were all allowed to incubate at 35° C. for 1 hour. Then, the above-mentioned conditioned media were dissolved in a solution of pH 7.4 containing 0.05 M Tris-HCl, 5 mM CaCl2, 1% SDS (sodium dodecyl-sulfate) and 5% glycerol, respectively, and the solutions were used as samples for a gelatin zymography method. MMP-2 and MMP-9 were separated from the samples by an SDS-PAGE method using 7.5% polyacrylamide gel containing 0.5% gelatin. After separation by an SDS-PAGE method, the separated gel was washed with a solution containing 2.5% Triton X-100 for 1 hour, to remove SDS. For allowing MMP-2 and MMP-9 separated in the separated gel to decompose gelatin in the separated gel, the separated gel was allowed to incubate at 35° C. for a given time in a buffer solution for reaction (standard conditions: 0.05 M Tris-HCl (pH 7.4)/0.15 M NaCl/5 MM CaCl2/0.02% NaN3). Staining of the separated gel was conducted using a staining solution containing 0.1% Amideblack B-10, and decolorization was conducted using a decolorization solution containing 10 vol % of acetic acid and 30 vol % of methanol.
(§1) Culturing of a human epidermal keratinocyte and detection of MMP-2 and MMP-9 by a gelatin zymography method were conducted by the same manner as in Example 1 except that LMB was added into four plates obtained by sub-culturing human foreskin keratinocytes (HFKS) over three generations, so that the concentrations in the medium were 0 nM, 0.4 nM, 2 nM and 10 nM, respectively, and a calcium chloride aqueous solution was added so that the four concentrations of Ca^+ in the medium were all 1.5 mM, instead of adding LMB into four plates obtained by sub-culturing human foreskin keratinocytes (HFKs) over three generations, so that the concentrations in the medium were 0 nM, 0.4 nM, 2 nM and 10 nM, respectively, in culturing of human epidermal keratinocyte.
as §1, with “(HFKs)” for “(HFKS)”, “TGF-β” for “a calcium chloride aqueous solution”, “TGF-β” for “Ca^+”, “1 ng/ml,” for “1.5 mM,”, “keratinocytes. […]” for “keratinocyte.”

MMP-9 promoter sequence = experiment: Measurement of MMP-9 promoter transcription activity by luciferase assay in human foreskin keratinocytes; assay type: cell-based; settings: 10 nM LMB; for transcription activity of MMP-9: 24 hours; for Promoter activity suppressed to (fraction of no LMB addition): vector-1 containing KRE-M9 (−73 to +16)
Method: A foreskin of a neonate was treated at 4° C. for 16 hours by a disperse having a casein decomposition activity of 25.0 caseinolytic units/ml. Epidermal was peeled from dermis using a forceps, then, the epidermal was treated with 0.05% trypsin for 5 minutes. The separated human foreskin keratinocytes (HFKs) were allowed to incubate at 37° C. in a 24-well plate having a keratinocyte-SFM medium (manufactured by Life Technologies) containing 0.09 mM Ca^+, and sub-cultured over three generations.
A −73 to +16 base sequence containing KRE-M9 of an MMP-9 promoter sequence and a −56 to +16 base sequence containing no KRE-M9 were inserted into pGL3-basic vector (manufactured by Promega) which is a luciferase expression vector containing a luciferase gene according to a method of Kobayashi et al. (Kobayashi et al. (2001) EMBO Rep. 2, 604 to 608), to prepare vector-1 and vector-2.
Using the vector-1 and vector-2 and Fugene 6 (manufactured by Roche) which is a reagent for gene introduction, a vector-1 solution and a vector-2 solution each having a DNA concentration of 3 μg/1 ml were prepared, respectively. Then, the vector solution 1 was added to solutions in 12 wells and the vector solution 2 was added to solutions in the remaining 12 wells each at 37° C., of HFKs culture solutions in the 24-well plates obtained in <Culturing of human epidermal keratinocyte> and gene introduction was performed, further, 10 nM LMB was added to solutions in 6 wells to give a 6-well LMB added plate 1 and LMB was not added to solutions in the remaining 6 wells to give a 6-well LMB no-addition plate 1, of the 12 wells obtained by addition of the vector-1 solution, and 10 nM LMB was added to solutions in 6 wells to give a 6-well LMB added plate 2 and LMB was not added to solutions in the remaining 6 wells to give a 6-well LMB no-addition plate 2, of the 12 wells obtained by addition of the vector-2 solution, then, they were allowed to stand still for 3 hours. Gene introduction of a luciferase gene effected as described above induces the production of MMP-9 and the production of luciferase, and by measuring the light emitting intensity in a light emitting reaction by luciferase by a micro press counter, the production of MMP-9 can be monitored.
Measurement of the transcription activity was conducted by a luciferase assay. The activity of luciferase was measured by Luciferase assay system (manufactured by Promega). As a micro press counter, Microbeta (manufactured by Perkin-Elmer) was used. In this measurement, the total transcription activity after 12 hours was measured using 3 wells among 6 wells, further, the total transcription activity after 24 hours was measured using the remaining 3 wells, each using the 6-well LMB added plate 1, 6-well LMB no-addition plate 1, 6-well LMB added plate 2 and 6-well LMB no-addition plate 2. […] The standard deviation is shown by error bar. […]

[1] = tested on: P388 cell, Lewis Landa carcinoma cell, B16 melanoma cell, Erich carcinoma cell; settings: tumor cells transplanted to mouse; anti-tumor agent containing leptomycin B, parenteral or oral; cited from earlier work
mRNA of human MMP-9 gene = experiment: Detection of mRNA of human MMP-9 gene and human GAPDH gene by RT-PCR in human foreskin keratinocytes; assay type: cell-based; settings: 10 nM LMB
Method: A foreskin of a neonate was treated at 4° C. for 16 hours by a disperse having a casein decomposition activity of 25.0 caseinolytic units/ml. Epidermal was peeled from dermis using a forceps, then, the epidermal was treated with 0.05% trypsin for 5 minutes. The separated human foreskin keratinocytes (HFKs) were allowed to incubate at 37° C. in a plate having a keratinocyte-SFM medium (manufactured by Invitrogen), and sub-cultured over three generations. Then, into two plates obtained by sub-culturing human foreskin keratinocytes (HFKS) over three generations, LMB was added so that the concentrations in the medium were 0 nM and 10 nM, respectively, further, allowed to incubate at 37° C. for 24 hours.
Extraction of all RNAs from cultured human foreskin keratinocytes (HFKs) was conducted according to a method of Wachi et al. (Wachi et al. (1995) FEBS Lett. 36B, 215-219), and the extracted all RNAs were stored at −80° C. in the form of solution having a concentration of 1 μg/ml. A RT-PCR method was conducted using TaKaRa RNA PCR kit (manufactured by TaKaRa). For amplifying 277 base pairs of cDNA for human MMP-9, a sense primer (SEQ ID No. 1) was used for the 5′ end situated at 116 to 136 base pairs, and an antisense primer (SEQ ID No. 2) was used for the 3′ end situated at 372 to 392 base pairs. For amplifying 478 base pairs of cDNA for human GAPDH, a sense primer (SEQ ID No. 3) was used for the 5′ end situated at 547 to 566 base pairs, and an antisense primer (SEQ ID No. 4) was used for the 3′ end situated at 1005 to 1024 base pairs. Reverse transcription of RNA was conducted by incubating at 42° C. for 1 hour. Incubation in PCR of cDNA obtained by reverse transcription was conducted according to the following temperature profile. Namely, for every one cycle, modification of cDNA was conducted at 94° C. for 2 minutes, annealing of a primer was conducted at 60° C. for 30 seconds, and synthesis of a DNA chain by a DNA polymerase was conducted at 72° C. for 1 minute. A solution obtained after 30 cycles was separated, and electrophoresis was conducted using an agarose gel containing ethidium bromide, and the resulted band was observed under ultraviolet ray.
Culturing of a human epidermal keratinocyte and detection of mRNA of a human MMP-9 gene and mRNA of a human GAPDH gene by a RT-PCR method were conducted by the same manner as in Example 6 except that LMB was added into two plates obtained by sub-culturing human foreskin keratinocytes (HFKs) over three generations, so that the concentrations in the medium were 0 nM and 10 nM, respectively, and a calcium chloride aqueous solution was added so that the two concentrations of Ca^+ in the medium were all 1.5 mM, instead of adding LMB into two plates obtained by sub-culturing human foreskin keratinocytes (HFKs) over three generations, so that the concentrations in the medium were 0 nM and 10 nM, respectively, in culturing of human epidermal keratinocytes. […]

[2] = tested on: skin of hairless mice (Hoes: HR-1); experiment: Ultraviolet B irradiated hairless mouse skin, external application, histology (hematoxylin and eosin); assay type: in vivo
Method: Ten 8-weeks old female hairless mice (Hoes: HR-1) were previously bred for 1 week. Five mice (mouse A1, mouse B1, mouse C1, mouse D1, mouse E1) were irradiated at the back with ultraviolet B (UV) of 300 mJ (about 3 MED (minimal erythema dose)), and five mice (mouse A2, mouse B2, mouse C2, mouse D2, mouse E2) were not irradiated with ultraviolet ray. Immediately after irradiation with ultraviolet ray and 24 hours after irradiation with ultraviolet ray, leptomycin B was administered by externally applying a solution of a concentration of 10 μg/ml (20 μM) to mouse B1 and mouse B2, a solution of a concentration of 1 μg/ml (2 μM) to mouse C1 and mouse C2, a solution of a concentration of 100 ng/ml (200 nM) to mouse D1 and mouse D2 and a solution of a concentration of 10 ng/ml (20 nM) to mouse E1 and mouse E2, each in an amount of 0.1 ml by a brush, as a solution containing leptomycin B dissolved in 70% ethanol. To mouse A1 and mouse A2, about 0.1 ml of 70% ethanol was applied by a brush. Then, skins were collected from mouse A1 to mouse E1 irradiated with ultraviolet ray 48 hours after irradiation and mouse A2 to mouse E2 not irradiated with ultraviolet ray. The collected skins were fixed with formalin and embedded in paraffin, then, the slices were stained with hematoxylin and eosin. Slices of skins collected from mouse A1, mouse B1, mouse C1, mouse D1 and mouse E1 and stained and slices of skins collected from mouse A2, mouse B2, mouse C2, mouse D2 and mouse E2 and stained were observed by ECLIPSE E1000M optical microscope (manufactured by NIKON), and the results are shown in FIG. 5. In FIG. 5, A1 to E1 correspond to slices of skins collected from mouse A1 to mouse E1 and stained, respectively, and A2 to E2 correspond to slices of skins collected from mouse A2 to mouse E2 and stained, respectively, and the length of a bar indicates 100 μm.

[3] = UVB 300 mJ irradiated mice B1 to E1, external application 10 μg/ml to 10 ng/ml in 70% ethanol, 0.1 ml, at 0 and 24 hours, skin at 48 hours

SMILES: CCC(=C/[C@H](C)C/C=C/C(C)=C/[C@@H](C)C(=O)[C@@H](C)[C@H](O)[C@@H](C)C/C(C)=C/C(=O)O)/C=C/[C@@H]1OC(=O)C=C[C@@H]1C [LMB, Leptomycin B]
- specificity of inhibition of the production of MMP-9 as compared with MMP-2 (MMP-9; gelatin zymography, FIG. 1): inhibits the production of MMP-9 more specifically as compared with MMP-2
- concentration of LMB in the medium at which the production of MMP-9 is inhibited (MMP-9; stimulating differentiation by TGF-β 1 ng/ml, FIG. 1 (C)): ≥ 2 nM
- concentration of LMB in the medium at which the production of MMP-9 is inhibited (MMP-9; stimulating differentiation by calcium at a high concentration (1.5 mM), FIG. 1 (B)): ≥ 2 nM
- concentration of LMB in the medium at which the production of MMP-9 is inhibited (MMP-9; stimulating inflammation by IL-1α 10^−10 M, FIG. 1 (E)): ≥ 2 nM
- concentration of LMB in the medium at which the production of MMP-9 is inhibited (MMP-9; stimulating inflammation by TNF-α 10 ng/ml, FIG. 1 (D)): ≥ 2 nM
- concentration of LMB in the medium at which the production of MMP-9 is inhibited (MMP-9; under no stimulation, FIG. 1 (A)): ≥ 2 nM
- transcription activity of MMP-9 (MMP-9 promoter sequence; base sequence 1 (−80 to +16, KRE-M9 and TRE), FIG. 4 (A)): suppressed
- transcription activity of MMP-9 (MMP-9 promoter sequence; base sequence 2 (4-base substitution of KRE-M9 in base sequence 1), FIG. 4 (A)): suppressed
- transcription activity of MMP-9 (MMP-9 promoter sequence; base sequence 6 (base substitution of both KRE-M9 and TRE), FIG. 4 (B)): suppressed
- Promoter activity suppressed to (fraction of no LMB addition) (MMP-9 promoter sequence; 12 hours after gene introduction): about one-fifth
- Promoter activity suppressed to (fraction of no LMB addition) (MMP-9 promoter sequence; 24 hours after gene introduction): about one-seventh
- anti-tumor action [1]: strong anti-tumor action
- production of MMP-9 (mRNA) as compared with GAPDH (mRNA of human MMP-9 gene; stimulation with IL-1α 10^−10 M, Sample 9 and 10 in FIG. 2): inhibited
- production of MMP-9 (mRNA) as compared with GAPDH (mRNA of human MMP-9 gene; stimulation with TGF-β 1 ng/ml, Sample 5 and 6 in FIG. 2): inhibited
- production of MMP-9 (mRNA) as compared with GAPDH (mRNA of human MMP-9 gene; stimulation with TNF-α 10 ng/ml, Sample 7 and 8 in FIG. 2): inhibited
- production of MMP-9 (mRNA) as compared with GAPDH (mRNA of human MMP-9 gene; stimulation with calcium at a high concentration (1.5 mM), Sample 3 and 4 in FIG. 2): inhibited
- production of MMP-9 (mRNA) as compared with GAPDH (mRNA of human MMP-9 gene; under no stimulation, 24 hours, Sample 1 and 2 in FIG. 2): inhibited
- inflammatory cell infiltration in dermis and subcutaneous tissue [2, 3]: suppressed
- keratinization of epidermal [2, 3]: normal keratinization is manifested in epidermal in a concentration-dependent manner
- change of skin not irradiated with ultraviolet ray ([2]; mice B2 to E2 not irradiated, external application 10 μg/ml to 10 ng/ml in 70% ethanol): significant change was not found
